Earlier results as cited in PubChem BioAssay AID1259409 (Chemical Carcinogenesis Research Information System (CCRIS), 2018).

System: rodent chemically induced tumor inhibition, incidence and multiplicity
Assay: CCRIS tumor inhibitor studies
Conditions: for tumour outcome (control, treated, inhibition, significance): Carcinogen: L-AZASERINE, 115-02-6, Route [Inhibitor]: ORAL, Species: RAT, Dose [Carcinogen]: 10 MG/KG BW 1/WK FOR 15 WK, Promoter: NONE USED; for outcome: Carcinogen: 7,12-DIMETHYLBENZ[A]ANTHRACENE, 57-97-6, Dose [Inhibitor]: 0, Route [Inhibitor]: DERMAL, Species: MOUSE, Strain/Sex: SENCAR/FEMALE, Target Tissue: Type of Lesion: SKIN: TUMOR, Dose [Carcinogen]: 40 NMOL IN 0.2 ML ACETONE ONCE
Text: The CCRIS database contains chemical records with carcinogenicity, mutagenicity, tumor promotion, and tumor inhibition test results. It was developed by the National Cancer Institute (NCI). Data are derived from studies cited in primary journals, current awareness tools, NCI reports, and other sources. Test results have been reviewed by experts in carcinogenesis and mutagenesis.
CCRIS provides historical information from the years 1985 - 2011. It is no longer updated.
This is an archive assay for CCRIS tumor inhibitor studies.

Structure (SMILES) | tumour outcome (control, treated, inhibition, significance) (Dose [Inhibitor]: 1 MMOL/KG DIET DAILY FOR 84 D FOLLOWED BY 0.5 MMOL/KG DIET FOR 276 D STARTING 1 WK AFTER COMPLETION OF CARCINOGEN TREATM, Strain/Sex: WISTAR-LEWIS/FEMALE, Target Tissue: Type of Lesion: PANCREAS: ADENOMA) | tumour outcome (control, treated, inhibition, significance) (Dose [Inhibitor]: 1 MMOL/KG DIET DAILY FOR 84 D FOLLOWED BY 0.5 MMOL/KG DIET FOR 276 D STARTING 1 WK AFTER COMPLETION OF CARCINOGEN TREATM, Strain/Sex: WISTAR-LEWIS/FEMALE, Target Tissue: Type of Lesion: PANCREAS: CARCINOMA IN SITU) | tumour outcome (control, treated, inhibition, significance) (Dose [Inhibitor]: 1 MMOL/KG DIET DAILY FOR 84 D FOLLOWED BY 0.5 MMOL/KG DIET FOR 276 D STARTING 1 WK AFTER COMPLETION OF CARCINOGEN TREATM, Strain/Sex: WISTAR-LEWIS/FEMALE, Target Tissue: Type of Lesion: PANCREAS: CARCINOMA) | tumour outcome (control, treated, inhibition, significance) (Dose [Inhibitor]: 1 MMOL/KG DIET DAILY FOR 84 D FOLLOWED BY 0.5 MMOL/KG DIET FOR 276 D STARTING 1 WK AFTER COMPLETION OF CARCINOGEN TREATM, Strain/Sex: WISTAR-LEWIS/FEMALE, Target Tissue: Type of Lesion: PANCREAS: NEOPLASM) | tumour outcome (control, treated, inhibition, significance) (Dose [Inhibitor]: 1 MMOL/KG DIET DAILY FOR 84 D FOLLOWED BY 0.5 MMOL/KG DIET FOR 276 D STARTING 1 WK AFTER COMPLETION OF CARCINOGEN TREATM, Strain/Sex: WISTAR-LEWIS/MALE, Target Tissue: Type of Lesion: PANCREAS: ADENOMA) | tumour outcome (control, treated, inhibition, significance) (Dose [Inhibitor]: 1 MMOL/KG DIET DAILY FOR 84 D FOLLOWED BY 0.5 MMOL/KG DIET FOR 276 D STARTING 1 WK AFTER COMPLETION OF CARCINOGEN TREATM, Strain/Sex: WISTAR-LEWIS/MALE, Target Tissue: Type of Lesion: PANCREAS: CARCINOMA IN SITU) | tumour outcome (control, treated, inhibition, significance) (Dose [Inhibitor]: 1 MMOL/KG DIET DAILY FOR 84 D FOLLOWED BY 0.5 MMOL/KG DIET FOR 276 D STARTING 1 WK AFTER COMPLETION OF CARCINOGEN TREATM, Strain/Sex: WISTAR-LEWIS/MALE, Target Tissue: Type of Lesion: PANCREAS: CARCINOMA) | tumour outcome (control, treated, inhibition, significance) (Dose [Inhibitor]: 1 MMOL/KG DIET DAILY FOR 84 D FOLLOWED BY 0.5 MMOL/KG DIET FOR 276 D STARTING 1 WK AFTER COMPLETION OF CARCINOGEN TREATM, Strain/Sex: WISTAR-LEWIS/MALE, Target Tissue: Type of Lesion: PANCREAS: NEOPLASM) | tumour outcome (control, treated, inhibition, significance) (Dose [Inhibitor]: 2 MMOL/KG DIET FOR 44 D, 1.5 MMOL FOR 26 D, 1 MMOL FOR 56 D AND 0.75 MMOL FOR 192 D STARTING 1 WK AFTER COMPLETION OF CA, Strain/Sex: WISTAR-LEWIS/FEMALE, Target Tissue: Type of Lesion: PANCREAS: ADENOMA) | tumour outcome (control, treated, inhibition, significance) (Dose [Inhibitor]: 2 MMOL/KG DIET FOR 44 D, 1.5 MMOL FOR 26 D, 1 MMOL FOR 56 D AND 0.75 MMOL FOR 192 D STARTING 1 WK AFTER COMPLETION OF CA, Strain/Sex: WISTAR-LEWIS/FEMALE, Target Tissue: Type of Lesion: PANCREAS: CARCINOMA IN SITU) | tumour outcome (control, treated, inhibition, significance) (Dose [Inhibitor]: 2 MMOL/KG DIET FOR 44 D, 1.5 MMOL FOR 26 D, 1 MMOL FOR 56 D AND 0.75 MMOL FOR 192 D STARTING 1 WK AFTER COMPLETION OF CA, Strain/Sex: WISTAR-LEWIS/FEMALE, Target Tissue: Type of Lesion: PANCREAS: CARCINOMA) | tumour outcome (control, treated, inhibition, significance) (Dose [Inhibitor]: 2 MMOL/KG DIET FOR 44 D, 1.5 MMOL FOR 26 D, 1 MMOL FOR 56 D AND 0.75 MMOL FOR 192 D STARTING 1 WK AFTER COMPLETION OF CA, Strain/Sex: WISTAR-LEWIS/FEMALE, Target Tissue: Type of Lesion: PANCREAS: NEOPLASM) | tumour outcome (control, treated, inhibition, significance) (Dose [Inhibitor]: 2 MMOL/KG DIET FOR 44 D, 1.5 MMOL FOR 26 D, 1 MMOL FOR 56 D AND 0.75 MMOL FOR 192 D STARTING 1 WK AFTER COMPLETION OF CA, Strain/Sex: WISTAR-LEWIS/MALE, Target Tissue: Type of Lesion: PANCREAS: ADENOMA) | tumour outcome (control, treated, inhibition, significance) (Dose [Inhibitor]: 2 MMOL/KG DIET FOR 44 D, 1.5 MMOL FOR 26 D, 1 MMOL FOR 56 D AND 0.75 MMOL FOR 192 D STARTING 1 WK AFTER COMPLETION OF CA, Strain/Sex: WISTAR-LEWIS/MALE, Target Tissue: Type of Lesion: PANCREAS: CARCINOMA IN SITU) | tumour outcome (control, treated, inhibition, significance) (Dose [Inhibitor]: 2 MMOL/KG DIET FOR 44 D, 1.5 MMOL FOR 26 D, 1 MMOL FOR 56 D AND 0.75 MMOL FOR 192 D STARTING 1 WK AFTER COMPLETION OF CA, Strain/Sex: WISTAR-LEWIS/MALE, Target Tissue: Type of Lesion: PANCREAS: CARCINOMA) | tumour outcome (control, treated, inhibition, significance) (Dose [Inhibitor]: 2 MMOL/KG DIET FOR 44 D, 1.5 MMOL FOR 26 D, 1 MMOL FOR 56 D AND 0.75 MMOL FOR 192 D STARTING 1 WK AFTER COMPLETION OF CA, Strain/Sex: WISTAR-LEWIS/MALE, Target Tissue: Type of Lesion: PANCREAS: NEOPLASM) | outcome (10 UMOL IN 0.2 ML DMSO/ACETONE (1:2) 1/D BEGINNING 7 D PRIOR TO CARCINOGEN DOSE (STUDY DURATION: 16 WK)) | outcome (30 UMOL IN DMSO/ACETONE (1:2) 30 MIN PRIOR TO EACH PROMOTER DOSE (STUDY DURATION: 16 WK))
CCC(=O)Oc1ccc(NC(=O)\C=C(C)/C=C/C=C(C)/C=C/C2=C(C)CCCC2(C)C)cc1 | 50%, 17%, 66%, not significant | 8%, 21%, -163%, not calculated | 13%, 0%, 100%, not significant | 71%, 38%, 46%, p<0.05 | 25%, 29%, -16%, not significant | 29%, 42%, -45%, not significant | 46%, 21%, 54%, p 0.06 | 100%, 92%, 8%, not significant | 50%, 29%, 42%, not significant | 8%, 4%, 50%, not significant | 13%, 4%, 70%, not significant | 71%, 38%, 46%, p<0.05 | 25%, 22%, 12%, not significant | 29%, 43%, -48%, not significant | 46%, 13%, 72%, p<0.05 | 100%, 78%, 22%, not significant |  | 
CC1(C)[C@@H](O)CC[C@]2(C)[C@H]3C(=O)C=C4[C@H]5C[C@@](C)(C(=O)O)CC[C@]5(C)CC[C@@]4(C)[C@]3(C)CC[C@@H]12 |  |  |  |  |  |  |  |  |  |  |  |  |  |  |  |  | 100%, 65%, 35%, not calculated at 9 wk; 100%, 100%, 0%, not significant at 16 wk | 100%, 10%, 90%, not calculated at 9 wk; 100%, 80%, 20%, not calculated at 16 wk
